According to patent US11964052B2, “Lipid compounds and lipid nanoparticle compositions” (SUZHOU ABOGEN BIOSCIENCES CO., LTD., priority 2021, dated 2024):

How the values were obtained:
Assay type in all cases: physicochemical
[1] = Lipid nanoparticle size and polydispersity by dynamic light scattering (Malvern Zetasizer Nano ZS); conditions: LNP of cationic lipid/DSPC/cholesterol/PEG-lipid 50:10:38.5:1.5 with mRNA
Procedure: (§1) Briefly, a cationic lipid provided herein, DSPC, cholesterol, and PEG-lipid were solubilized in ethanol at a molar ratio of 50:10:38.5:1.5, and mRNA were diluted in 10 to 50 mM citrate buffer, pH=4. The LNPs were prepared at a total lipid to mRNA weight ratio of approximately 10:1 to 30:1 by mixing the ethanolic lipid solution with the aqueous mRNA solution at a volume ratio of 1:3 using a microfluidic apparatus, total flow rate ranging from 9-30 mL/min. Ethanol were thereby removed and replaced by DPBS using dialysis. Finally, the lipid nanoparticles were filtered through a 0.2 μm sterile filter.
(§2) Lipid nanoparticle size were determined by dynamic light scattering using a Malvern Zetasizer Nano ZS (Malvern UK) using a 173° backscatter detection mode. The encapsulation efficiency of lipid nanoparticles were determined using a Quant-it Ribogreen RNA quantification assay kit (Thermo Fisher Scientific, UK) according to the manufacturer's instructions.

[2] = Apparent pKa of LNP formulations, TNS fluorescence assay; conditions: LNP cationic lipid/DSPC/cholesterol/DMG-PEG 50/10/38.5/1.5 mol %, pH 3 to 9
Procedure: As reported in literature, the apparent pKa of LNP formulations correlates with the delivery efficiency of LNPs for nucleic acids in vivo. The apparent pKa of each formulation was determined using an assay based on fluorescence of 2-(p-toluidino)-6-napthalene sulfonic acid (TNS). LNP formulations comprising of cationic lipid/DSPC/cholesterol/DMG-PEG (50/10/38.5/1.5 mol %) in PBS were prepared as described above. TNS was prepared as a 300 uM stock solution in distilled water. LNP formulations were diluted to 0.1 mg/ml total lipid in 3 mL of buffered solutions containing 50 mM sodium citrate, 50 mM sodium phosphate, 50 mM sodium borate, and 30 mM sodium chloride where the pH ranged from 3 to 9. An aliquot of the TNS solution was added to give a final concentration of 0.1 mg/ml and following vortex mixing fluorescence intensity was measured at room temperature in a Molecular Devices Spectramax iD3 spectrometer using excitation and mission wavelengths of 325 nm and 435 nm. A sigmoidal best fit analysis was applied to the fluorescence data and the pKa value was measured as the pH giving rise to half-maximal fluorescent intensity.

[3] = Encapsulation efficiency of lipid nanoparticles, Quant-it Ribogreen RNA quantification assay; conditions: LNP with mRNA
Procedure: as §1, §2

Compound	polydispersity [1]	size (nm) [1] [nm]	Apparant Pka [2]	Encapsulation Efficiency [3] [%]
CCCCCCCCCCCCOCC(CN(CCO)C1CCC1)OCCCCCCCCCCCC (stereo not drawn) [Compound 1]	0.12	72.4	5.902	96.3
CCCCCCCCCCCCOCC(CN(CCO)C1CCC1)OC(=O)CCCCCCCCCCC (stereo not drawn) [Compound 2]	0.094	69.05	5.177	94.5
CCCCCCCCCCCCOCC(CN(CCO)C1CCC1)OC(=O)CCCCC (stereo not drawn) [Compound 3]	0.124	105.6	–	92.8
CCCCCCCCCCCCOCC(CN(CCO)C1CCC1)OCCCCCC(=O)OCC(CCCCCC)CCCCCCCC (stereo not drawn) [Compound 4]	0.2	54.52	5.083	94.6
CCCCCCCCCCCCOCC(CN(C)CCN(CCO)C1CCCC1)OCCCCCC (stereo not drawn) [Compound 5]	0.384	78.36	7.315	92.4
CCCCCCCCCCCCOCC(CN(C)CCN(CCO)C1CCCCC1)OCCCCCCCCCCCC (stereo not drawn) [Compound 6]	0.241	126.4	7.035	93.4
CCCCCCCCCCCCOCC(O)CN(CCCCCC(=O)OCC(CCCCCC)CCCCCCCC)CCN(C)C (stereo not drawn) [Compound 7]	0.063	85.46	8.7	96.7
CCCCCCCCCCCCOCC(O)CN(CCCCCC(=O)OCC(CCCCCC)CCCCCCCC)CCN1CCCCC1 (stereo not drawn) [Compound 8]	0.156	102.9	7.327	88.2
CCCCCCCCCCCCOCC(CN(CCCCCC(=O)OCC(CCCCCC)CCCCCCCC)CCN1CCCCC1)OC(C)=O (stereo not drawn) [Compound 9]	0.144	70.97	–	90.8
CCCCCCCCCCCCOCC(O)CN(CCCCCC(=O)OCC(CCCCCC)CCCCCCCC)CCN1CCCC1 (stereo not drawn) [Compound 10]	0.356	84.22	–	94.8
CCCCCCCCCCCCOCC(O)CN(CCCCCC(=O)OCC(CCCCCC)CCCCCCCC)CCN(CC)CC (stereo not drawn) [Compound 11]	0.196	77.98	7.701	82.2
CCCCCCCCCCCCOCC(O)CN(CCO)CCCCCC(=O)OCC(CCCCCC)CCCCCCCC (stereo not drawn) [Compound 13]	0.128	61.3	7.089	94.2
CCCCCCCCCCCCOCC(CN(CCO)CCCCCC(=O)OCC(CCCCCC)CCCCCCCC)OC(=O)CCCCC (stereo not drawn) [Compound 14]	0.4	56.31	4.536	86.1
CCCCCCCCCCCCOCC(CN(CCCCCC(=O)OCC(CCCCCC)CCCCCCCC)CCN1CCCCC1)OC(=O)CCCCC (stereo not drawn) [Compound 15]	0.139	62.11	5.875	93.5
CCCCCCCCCCCCOCC(CN(CCCCCC)CCN(CCO)C1CCC1)OCCCCCCCCCCCC (stereo not drawn) [Compound 16]	0.060	74.31	–	89.8
CCCCCCCCCCCCOCC(CN(CCCCCCCCCCCC)CCN(CCO)C1CCC1)OCCCCCCCCCCCC (stereo not drawn) [Compound 17]	0.186	79.43	5.835	92.8
CCCCCCCCCCCCOCC(CN(CCO)CCCCCC(=O)OCC(CCCCCC)CCCCCCCC)OC(C)=O (stereo not drawn) [Compound 18]	0.17	65.06	4.916	90.6
CCCCCCCCCCCCOCC(CN(CCO)CCCCCC(=O)OCC(CCCCCC)CCCCCCCC)OC(=O)CC (stereo not drawn) [Compound 19]	0.156	117.5	4.957	88.5

Compound	polydispersity [1]	size (nm) [1] [nm]	Apparant Pka [2]	Encapsulation Efficiency [3] [%]
CCCCCCCCCCCCOCC(CN(CCCCCC(=O)OCC(CCCCCC)CCCCCCCC)CCN(CCO)C1CCC1)OC(C)=O (stereo not drawn) [Compound 20]	0.145	67.7	5.96	90.7
CCCCCCCCCCCCOCC(CN(CCCCCC(=O)OCC(CCCCCC)CCCCCCCC)CCN(CCO)C1CCCCC1)OC(C)=O (stereo not drawn) [Compound 21]	0.221	74.88	5.49	85.5
CCCCCCCCCCCCOCC(CN(CCCCCC(=O)OCC(CCCCCC)CCCCCCCC)CCN(CCO)C1CC1)OCCCCCC (stereo not drawn) [Compound 22]	0.206	68.67	5.457	83.5
CCCCCCCCCCCCOCC(CN(CCCCCC(=O)OCC(CCCCCC)CCCCCCCC)CCN(CCO)C1CCC1)OCCCCCC (stereo not drawn) [Compound 23]	0.076	74.73	5.993	88.5
CCCCCCCCCCCCOCC(CN(CCCCCC(=O)OCC(CCCCCC)CCCCCCCC)CCN(CCO)C1CCCC1)OCCCCCC (stereo not drawn) [Compound 24]	0.094	56.39	6.005	93.0
CCCCCCCCCCCCOCC(CN(CCCCCC(=O)OCC(CCCCCC)CCCCCCCC)CCN(CCO)C1CCCCC1)OCCCCCC (stereo not drawn) [Compound 25]	0.112	58.01	–	94.70
CCCCCCCCCCCCOCC(CN(CCCCCC(=O)OCC(CCCCCC)CCCCCCCC)CCN(CCO)C1CCCCCC1)OCCCCCC (stereo not drawn) [Compound 26]	0.153	55.8	5.696	93.30
CCCCCCCCCCCCOCC(CN(CCCCCC(=O)OCC(CCCCCC)CCCCCCCC)CCN(CCO)C1CC1)OCCCCCCCCCCCC (stereo not drawn) [Compound 27]	0.139	65.62	5.351	73.3
CCCCCCCCCCCCOCC(CN(C)CCN(CCO)C1CCC1)OC(=O)CCCC (stereo not drawn) [Compound 40]	0.326	230	–	36.4
CCCCCCCCC(CCCCCCCC)CNC(=O)CCOCC(CN(C)CCN(CCO)C1CCCCC1)OCCC(=O)NCC(CCCCCCCC)CCCCCCCC (stereo not drawn) [Compound 52]	0.14	66.03	–	96.5
CCCCCCCCC(CCCCCCCC)CNC(=O)CCOCC(CN(C)CCN(CCO)C1CCCCCC1)OCCC(=O)NCC(CCCCCCCC)CCCCCCCC (stereo not drawn) [Compound 58]	0.032	56.37	–	97.3
CCCCCCC(CCCCCC)COC(=O)CCCCCN(CCN1CCC(O)C1)CC(COC(=O)CCCCC)OC(=O)CCCCC (stereo not drawn) [Compound 59]	0.049	94.89	–	96.1
CCCCC/C=C\C/C=C\CCCCCCCC(=O)OCC(CN(C)CCN(CCO)C1CCC1)OC(=O)CCCCCCC/C=C\C/C=C\CCCCC (stereo not drawn) [Compound 64]	0.075	73.8	–	91.6
CCCCCCCCC(CCCCCCCC)COC(=O)CCOCC(CN(C)CCN(CCO)C1CCCCC1)OCCC(=O)OCC(CCCCCCCC)CCCCCCCC (stereo not drawn) [Compound 72]	0.055	81.89	–	95.22
CCCCCCCCCCCCCCCC(=O)OCC(CCCCN(CCO)C1CCCCC1)COC(=O)CC(CCCCCC)CCCCCCCC (stereo not drawn) [Compound 86]	0.03	73.58	–	92.81
CCCCCCCCCCC(=O)OCC(CCCCN(CCO)C1CCCCCC1)COC(=O)CC(CCCCCC)CCCCCCCC (stereo not drawn) [Compound 92]	0.051	70.85	–	90.25
CCCCCCCCC(CCCCCC)COC(=O)CCOCC(CN(CCCCCC)CCN(CCO)C1CCCCCC1)OCCC(=O)OCC(CCCCCC)CCCCCCCC (stereo not drawn) [Compound 107]	0.067	61.18	–	93.66
CCCCCCCCCC(CCCCC)COC(=O)CCOCC(CN(CCO)C1CCC1)OCCC(=O)OCC(CCCCCC)CCCCCCCC (stereo not drawn) [Compound 108]	0.097	47.87	–	92.04
